In publication PMC10083169, “A cationic motif upstream Engrailed2 homeodomain controls cell internalization through selective interaction with heparan sulfates” (Nature Communications, 2023):

What was measured:
ExtHD = target: T1, ExtHD (Gallus gallus, UniProt Q05917); test: ITC, titration with POPG LUVs; type: binding; details: read-out: Kd^apparent
T1 construct: gene EN2; homeodomain plus 17-residue basic N-terminal extension (183-259); E. coli SE1, His6-Cherry fusion removed by PreScission, GPAS left at N-terminus (GPCAS with biotin-PEG2-maleimide for biotinylated form)
T1 sequence (Q05917 183-259): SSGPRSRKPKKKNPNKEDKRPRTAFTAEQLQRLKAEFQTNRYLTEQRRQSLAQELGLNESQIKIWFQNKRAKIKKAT
Text: ITC, titration with POPG LUVs on ExtHD

HD = target: T2, HD (Gallus gallus, UniProt Q05917); test: ITC, titration with POPG LUVs; type: binding; details: read-out: Kd^apparent
T2 construct: gene EN2; homeodomain alone (200-259); E. coli SE1, His6-Cherry fusion removed by PreScission, GPAS left at N-terminus
T2 sequence (Q05917 200-259): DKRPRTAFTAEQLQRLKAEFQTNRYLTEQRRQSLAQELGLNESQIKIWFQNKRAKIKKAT
Text: ITC, titration with POPG LUVs on HD

Kd (ExtHD): 6.8 ± 2.3 µM | Kd (HD): 7.5 ± 2.5 µM
Compound: CCCCCCCC/C=C\CCCCCCCC(=O)O[C@H](COC(=O)CCCCCCCCCCCCCCC)COP(=O)(O)OCC(O)CO (mixture of isomers) [POPG, 1-palmitoyl-2-oleoyl-sn-glycero-3-phospho-(1’-rac-glycerol)]
